Earlier results as cited in patent US20170209372A1, “A Method of Preparing Amorphous Solid Dispersion in Submicron Range by Co-Precipitation” (HOVIONE INTERNATIONAL LTD, priority 2014, published 2017).

SMILES	Log P
CCC(C)n1ncn(-c2ccc(N3CCN(c4ccc(OCC5COC(Cn6cncn6)(c6ccc(Cl)cc6Cl)O5)cc4)CC3)cc2)c1=O (stereo not drawn) [Itraconazole]	4.4
C(=C\c1ccccc1)/CN1CCN(C(c2ccccc2)c2ccccc2)CC1 [Cinnarizine]	~5.77
NC(=O)N1c2ccccc2C=Cc2ccccc21 [Carbamazepine]	~2.6
